Source: US20180014546A1, “Broad Spectrum Bacteriocin for Control of Unwanted Bacteria” (priority 2013, published 2018)
“Also recorded” adds a separate entry of the source.

Assays:
[1] = system: production host Lactobacillus plantarum GP15; experiment: Activity against own production host; format: cell-based
Text: As noted above, GP-15cin may be applied alone or in combination with other bacteriocin and/or bacteriophage virulent for unwanted bacteria in the same system. Bacteriocin producing hosts are immune to the bacteriocins produced by themselves. GP-15cin is therefore not active against its own production host, GP15cin. […] Therefore, it is desirable to combine GP-15cin with a different bacteriocin in a cocktail that will kill the bacteria insensitive to GP15cin. Additionally, GP-15cin may be combined with other antimicrobial agents to broaden the scope of effectiveness against the range of unwanted bacteria that are targeted. For example, the combination of bacteriocin and bacteriophage (phage) ensures a broader inhibition spectrum and more efficient control of the bacteria contamination. Phage targeting these non-sensitive strains can be isolated, and be combined with the bacteriocin for a complete control of contaminating bacteria.

[2] = system: indigenous contaminating bacteria in ethanol fermentation mash; experiment: Reduction of indigenous contaminating bacterial level in fermentation mash from commercial ethanol plants; format: cell-based; settings: crude form
Experimental: The inhibitory activity spectrum of GP15cin against different strains was determined. The active concentration range and the minimum inhibition concentration of the bacteriocin are determined using different indicator strains. The activity levels of the bacteriocin present in the raw bacterial culture supernatants and/or in partially purified mixtures were also determined. […] FIG. 2 to FIG. 11 show the effectiveness of GP15cin in reducing the total levels of indigenous bacteria presented in fermentation mash from different commercial ethanol plants. The exact identities of the indigenous bacteria population in different plants are unknown and are likely highly diverse.
GP15cin described herein were produced by a L. plantarum strain, which was isolated from the indigenous LAB populations present during commercial ethanol fermentation. GP15cin can act towards species and/or strains of similar indigenous LAB populations and thus can be used as an effective control for contaminating LAB. […] Either fermentor or mash cooler mash samples were collected from 6 different commercial ethanol plants on 13 different days from 2012 to 2014. Results of 15 independent tests are shown. […] It is likely that the effects on controlling contaminating bacteria and acids will be even more significant if a higher dose of GP5cin is used. […]

[3] = system: non-LAB isolates (strains of Staphylococcus, Enterobacter, Bacillus, Clostridium); experiment: Inhibitory activity spectrum, culture supernatant spotted on indicator bacterial lawns (non-LAB isolates); format: cell-based
Experimental: (§1) In the discovery of the unique broad spectrum bacteriocin of this invention, indigenous LAB were isolated and purified from the fermentation mash of the commercial ethanol fermentation plants. The identities of the isolates were determined to the species level based on their 16s rDNA sequences. The capability of the isolated LAB strains to produce antimicrobial compounds was identified. Culture supernatants of the strains to be tested were spotted onto individual indicator bacterial culture lawns, which were prepared using a variety of LAB strains of different genera. After incubation, growth inhibition of the indicator bacteria was seen as a clear zone at and around the spotting position. Any positive activity of bacterial growth inhibition from the tested culture supernatant was confirmed again in the same manner, and the inhibitory activity spectrum of the antimicrobial compound is determined. […]
(§2) The inhibitory activity spectrum of GP15cin against different strains was determined. The active concentration range and the minimum inhibition concentration of the bacteriocin are determined using different indicator strains. The activity levels of the bacteriocin present in the raw bacterial culture supernatants and/or in partially purified mixtures were also determined. […]

contaminating LAB = experiment: Lactic and acetic acid levels in laboratory-scale ethanol fermentation; format: cell-based
Text: GP15cin described herein were produced by a L. plantarum strain, which was isolated from the indigenous LAB populations present during commercial ethanol fermentation. GP15cin can act towards species and/or strains of similar indigenous LAB populations and thus can be used as an effective control for contaminating LAB. […] Either fermentor or mash cooler mash samples were collected from 6 different commercial ethanol plants on 13 different days from 2012 to 2014. Results of 15 independent tests are shown. […] It is likely that the effects on controlling contaminating bacteria and acids will be even more significant if a higher dose of […] is used. The presented results highlight the feasibility of GP15cin application for control of unwanted bacteria in ethanol and other biofuel industries.

[4] = system: LAB isolates from commercial ethanol plants (Lactobacillus, Lactococcus, Weissella, Leuconostoc, Pediococcus, Enterococcus, Streptococcus); experiment: Inhibitory activity spectrum, culture supernatant spotted on indicator bacterial lawns (LAB isolates); format: cell-based, lactic acid bacteria; settings: multiple genera
Experimental: as §1, §2

[5] = system: Lactobacillus fermentum strain 0315-25; experiment: Batch culture growth inhibition, bacteriocin and/or phage, growth monitored 24 h; format: cell-based
Experimental: Bacteriocin alone, bacteriophage alone, and bacteriocin combined with phage were tested against Lactobacillus in batch culture systems. To be specific, logarithmic growth phase cultures of Lactobacillus fermentum strain 0315-25 (OD600 being 0.1) were treated either with single agent at different doses, such as bacteriocin GP15cin alone at different doses (0.1%, 1%, and 10%, v/v), or a phage designated herein as LferInf alone at different MOIs (0.1, 1, and 10), or two agents combined together at different doses, such as 0.1% GP15cin plus LferInf at MOI of 0.1, 0.1% GP15cin plus phage LferInf at MOI of 1, 1% GP15cin plus LferInf at MOI of 0.1, and 1% GP15cin plus phage LferInf at MOI of 1. Culture without any treatment was served as control. LferInf is a bacteriophage isolated from wastewater and found to be effective against a broad host range of Lactobacillus and described in more detail below. The growth of bacteria was monitored for 24 h, and the treatment effects were compared.

[6] = Bacteriocin stability at different temperatures and pH values; format: physicochemical
Experimental: Either using crude, partially or completely purified form, the chemical characteristics of the bacteriocins can be determined. The determined characteristics include their sensitivities to different enzymes, stability at different temperatures and pH values, etc. Sensitivity of the bacteriocin to proteolytic and lipolytic enzymes, such as trypsin, pepsin, pronase, lipase, etc, was tested. The proteinaceus nature of GP15cin was confirmed. […] The same bacteriocin has optimal activity in the pH range of 4-10.

For plantaricin W [GP15cin], the “activity against own production host” value [1] was “not active”, the “time in which the reduction effect was seen” value [2] was no less than 2 h and the “reduction of indigenous contaminating bacteria levels” value ([2]; mash samples from 6 plants, 15 independent tests) was “consistent reduction effects seen in all tests; also recorded: reduced indigenous contaminating bacteria levels in all mash samples”. For the same substance, the “killing activity against non-LAB isolates” value [3] was “showed killing activity”, the “lactic acid and acetic acid levels produced by contaminating LAB” value (contaminating LAB) was “significantly reduced” and the “killing activity against LAB isolates” value [4] was “broad range killing activity; also recorded: extremely broad killing spectrum”. The “growth of L. fermentum” value ([5]; GP15cin alone 0.1% v/v) was “all treatment, except GP15cin used at 0.1%, suppressed the growth”, the “growth of L. fermentum” value ([5]; GP15cin alone 1% v/v) was “suppressed the growth” and the “growth of L. fermentum” value ([5]; GP15cin alone 10% v/v) was “suppressed the growth”. For the same substance, the “pH range of optimal activity” value [6] was 4-10 pH, the “loss of activity (heat resistance)” value ([6]; after 2 hours at 120° C.) was “not a complete loss of activity” and the loss of activity ([6]; pH 12) was “complete loss of activity”. It also gave a reduction in activity ([6]; pH values of 1, 2, 3, and 11) of 50%, a reduction in activity ([6]; temperature of 120° C.) of 87.5% and a reduction in activity ([6]; temperatures of 65-100° C.) of 50%.
